Laboratory results taken from publication PMC6120666 (The EMBO Journal, 2018).

Tests used:
Assay in all cases: Drug affinity chromatography with c-ponatinib and LC-MS/MS (ponatinib interactome)
Format in all cases: binding
[1] = target: T1, proteins of U2OS cell lysate (Homo sapiens, UniProt A1L0T0); conditions: ILVBL, Acetolactate synthase-like protein
T1 construct: Proteins enriched by c-ponatinib from U2OS cell lysate; endogenous in cells; host or cells: U2OS cell lysate
Summary of the method: (§1)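 Proteins were identified by nano-UPLC–MS/MS after elution with formic acid and trypsin digestion. They were captured from U2OS lysate (2 mg protein per pulldown, NP-40 buffer) on amine-coupled NHS beads during a 2 h incubation at 4 °C.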

[2] = target: T2, proteins of U2OS cell lysate (Homo sapiens, UniProt O14976); conditions: GAK, Cyclin-G-associated kinase
T2 construct: Proteins enriched by c-ponatinib from U2OS cell lysate; endogenous in cells; host or cells: U2OS cell lysate
T2 sequence (O14976 whole entry): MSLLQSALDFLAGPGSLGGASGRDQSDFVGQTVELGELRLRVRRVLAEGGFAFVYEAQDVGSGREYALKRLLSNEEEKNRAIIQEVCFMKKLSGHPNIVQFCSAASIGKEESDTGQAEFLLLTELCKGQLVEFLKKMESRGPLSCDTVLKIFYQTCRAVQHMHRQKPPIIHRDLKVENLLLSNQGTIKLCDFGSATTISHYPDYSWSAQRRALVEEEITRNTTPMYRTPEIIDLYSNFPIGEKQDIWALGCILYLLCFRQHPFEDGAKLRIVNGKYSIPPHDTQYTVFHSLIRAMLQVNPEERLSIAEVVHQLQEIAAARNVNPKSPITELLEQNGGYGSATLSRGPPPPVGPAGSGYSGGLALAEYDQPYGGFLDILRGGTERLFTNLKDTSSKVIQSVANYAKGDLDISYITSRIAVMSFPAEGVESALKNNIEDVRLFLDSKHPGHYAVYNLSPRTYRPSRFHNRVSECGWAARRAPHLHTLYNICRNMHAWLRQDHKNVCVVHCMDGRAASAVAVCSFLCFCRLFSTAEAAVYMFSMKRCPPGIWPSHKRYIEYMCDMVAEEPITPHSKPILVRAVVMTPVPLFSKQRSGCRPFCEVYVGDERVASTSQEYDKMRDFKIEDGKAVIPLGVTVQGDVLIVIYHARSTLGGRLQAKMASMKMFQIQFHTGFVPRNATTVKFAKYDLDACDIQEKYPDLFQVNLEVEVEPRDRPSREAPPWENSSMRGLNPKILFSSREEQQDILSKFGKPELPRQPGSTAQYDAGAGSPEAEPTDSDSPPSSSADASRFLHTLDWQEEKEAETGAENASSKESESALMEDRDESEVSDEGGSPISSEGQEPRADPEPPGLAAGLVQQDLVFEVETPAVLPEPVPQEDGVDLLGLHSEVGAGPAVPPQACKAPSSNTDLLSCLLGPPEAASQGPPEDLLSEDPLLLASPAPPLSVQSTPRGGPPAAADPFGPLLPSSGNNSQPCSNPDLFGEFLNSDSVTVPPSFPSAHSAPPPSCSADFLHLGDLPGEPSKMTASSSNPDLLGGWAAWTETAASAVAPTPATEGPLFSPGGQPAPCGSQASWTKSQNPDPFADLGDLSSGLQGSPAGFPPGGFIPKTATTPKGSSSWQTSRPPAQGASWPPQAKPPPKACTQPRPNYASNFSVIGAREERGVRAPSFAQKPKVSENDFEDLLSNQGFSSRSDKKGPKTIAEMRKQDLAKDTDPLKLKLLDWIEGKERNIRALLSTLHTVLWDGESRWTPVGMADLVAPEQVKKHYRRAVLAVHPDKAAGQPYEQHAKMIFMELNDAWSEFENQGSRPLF
Summary of the method: as §1

[3] = target: T3, proteins of U2OS cell lysate (Homo sapiens, UniProt O94906); conditions: PRPF6, Pre-mRNA-processing factor 6
T3 construct: Proteins enriched by c-ponatinib from U2OS cell lysate; endogenous in cells; host or cells: U2OS cell lysate
T3 sequence (O94906 whole entry): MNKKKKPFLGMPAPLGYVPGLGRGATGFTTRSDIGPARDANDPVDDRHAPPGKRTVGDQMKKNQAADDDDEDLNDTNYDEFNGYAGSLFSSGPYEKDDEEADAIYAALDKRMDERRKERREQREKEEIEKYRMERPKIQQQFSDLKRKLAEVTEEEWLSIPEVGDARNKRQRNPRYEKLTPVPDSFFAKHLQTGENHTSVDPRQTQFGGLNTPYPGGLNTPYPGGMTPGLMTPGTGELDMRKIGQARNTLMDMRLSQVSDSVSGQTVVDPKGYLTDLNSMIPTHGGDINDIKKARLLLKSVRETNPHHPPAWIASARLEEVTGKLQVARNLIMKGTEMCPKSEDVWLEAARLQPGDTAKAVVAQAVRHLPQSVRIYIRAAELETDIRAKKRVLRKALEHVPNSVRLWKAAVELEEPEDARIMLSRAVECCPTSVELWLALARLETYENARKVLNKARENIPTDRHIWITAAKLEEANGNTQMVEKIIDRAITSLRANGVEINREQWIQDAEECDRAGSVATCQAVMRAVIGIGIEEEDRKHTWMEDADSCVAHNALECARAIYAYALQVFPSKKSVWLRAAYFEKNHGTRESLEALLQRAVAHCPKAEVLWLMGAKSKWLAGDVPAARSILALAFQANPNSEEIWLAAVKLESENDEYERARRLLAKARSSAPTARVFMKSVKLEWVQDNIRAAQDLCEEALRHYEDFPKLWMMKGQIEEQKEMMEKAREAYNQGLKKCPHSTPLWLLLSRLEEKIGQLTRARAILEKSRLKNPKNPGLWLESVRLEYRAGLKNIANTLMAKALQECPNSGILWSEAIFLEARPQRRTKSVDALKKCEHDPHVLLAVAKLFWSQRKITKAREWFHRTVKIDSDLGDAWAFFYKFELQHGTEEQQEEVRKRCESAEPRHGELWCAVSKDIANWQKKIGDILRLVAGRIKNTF
Summary of the method: as §1

[4] = target: T4, proteins of U2OS cell lysate (Homo sapiens, UniProt O95292); conditions: VAPB, Vesicle-associated membrane protein-associated protein B/C
T4 construct: Proteins enriched by c-ponatinib from U2OS cell lysate; endogenous in cells; host or cells: U2OS cell lysate
Summary of the method: as §1

[5] = target: T5, proteins of U2OS cell lysate (Homo sapiens, UniProt P06576); conditions: ATP5B, ATP synthase subunit beta, mitochondrial
T5 construct: Proteins enriched by c-ponatinib from U2OS cell lysate; endogenous in cells; host or cells: U2OS cell lysate
Summary of the method: as §1

[6] = target: T6, proteins of U2OS cell lysate (Homo sapiens, UniProt P07948); conditions: LYN, Tyrosine-protein kinase Lyn
T6 construct: Proteins enriched by c-ponatinib from U2OS cell lysate; endogenous in cells; host or cells: U2OS cell lysate
Summary of the method: as §1

[7] = target: T7, proteins of U2OS cell lysate (Homo sapiens, UniProt P33991); conditions: MCM4, DNA replication licensing factor MCM4
T7 construct: Proteins enriched by c-ponatinib from U2OS cell lysate; endogenous in cells; host or cells: U2OS cell lysate
Summary of the method: as §1

[8] = target: T8, proteins of U2OS cell lysate (Homo sapiens, UniProt P35659); conditions: DEK, Protein DEK
T8 construct: Proteins enriched by c-ponatinib from U2OS cell lysate; endogenous in cells; host or cells: U2OS cell lysate
T8 sequence (P35659 whole entry): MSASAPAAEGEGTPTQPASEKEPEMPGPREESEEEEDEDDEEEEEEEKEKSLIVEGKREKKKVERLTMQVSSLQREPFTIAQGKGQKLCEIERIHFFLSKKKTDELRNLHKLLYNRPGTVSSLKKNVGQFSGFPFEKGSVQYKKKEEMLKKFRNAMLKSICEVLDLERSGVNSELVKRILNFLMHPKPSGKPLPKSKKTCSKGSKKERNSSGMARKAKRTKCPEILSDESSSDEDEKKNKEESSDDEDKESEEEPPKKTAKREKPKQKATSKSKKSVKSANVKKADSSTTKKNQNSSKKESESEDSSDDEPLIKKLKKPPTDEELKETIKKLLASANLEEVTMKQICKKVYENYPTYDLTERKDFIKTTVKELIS
Summary of the method: as §1

[9] = target: T9, proteins of U2OS cell lysate (Homo sapiens, UniProt P51149); conditions: RAB7A, Ras-related protein Rab-7a
T9 construct: Proteins enriched by c-ponatinib from U2OS cell lysate; endogenous in cells; host or cells: U2OS cell lysate
Summary of the method: as §1

[10] = target: T10, proteins of U2OS cell lysate (Homo sapiens, UniProt P51572); conditions: BCAP31, B-cell receptor-associated protein 31
T10 construct: Proteins enriched by c-ponatinib from U2OS cell lysate; endogenous in cells; host or cells: U2OS cell lysate
T10 sequence (P51572 whole entry): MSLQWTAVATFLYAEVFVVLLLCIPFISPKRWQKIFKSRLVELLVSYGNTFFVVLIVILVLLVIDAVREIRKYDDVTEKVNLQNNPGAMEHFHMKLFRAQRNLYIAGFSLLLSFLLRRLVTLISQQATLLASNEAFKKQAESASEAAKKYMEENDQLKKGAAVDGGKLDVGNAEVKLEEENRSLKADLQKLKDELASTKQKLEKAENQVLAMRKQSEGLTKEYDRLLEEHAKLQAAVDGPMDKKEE
Summary of the method: as §1

[11] = target: T11, proteins of U2OS cell lysate (Homo sapiens, UniProt P51617); conditions: IRAK1, Interleukin-1 receptor-associated kinase 1
T11 construct: Proteins enriched by c-ponatinib from U2OS cell lysate; endogenous in cells; host or cells: U2OS cell lysate
Summary of the method: as §1

[12] = target: T12, proteins of U2OS cell lysate (Homo sapiens, UniProt P61026); conditions: RAB10, Ras-related protein Rab-10
T12 construct: Proteins enriched by c-ponatinib from U2OS cell lysate; endogenous in cells; host or cells: U2OS cell lysate
T12 sequence (P61026 whole entry): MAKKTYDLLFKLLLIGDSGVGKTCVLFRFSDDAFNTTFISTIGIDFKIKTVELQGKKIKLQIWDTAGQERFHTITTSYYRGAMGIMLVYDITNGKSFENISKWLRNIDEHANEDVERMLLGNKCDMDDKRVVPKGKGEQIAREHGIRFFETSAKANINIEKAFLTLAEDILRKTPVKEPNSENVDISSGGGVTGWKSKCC
Summary of the method: as §1

[13] = target: T13, proteins of U2OS cell lysate (Homo sapiens, UniProt P63104); conditions: YWHAZ, 14-3-3 protein zeta/delta
T13 construct: Proteins enriched by c-ponatinib from U2OS cell lysate; endogenous in cells; host or cells: U2OS cell lysate
Summary of the method: as §1

[14] = target: T14, proteins of U2OS cell lysate (Homo sapiens, UniProt P68363); conditions: TUBA1B;TUBA1A, Tubulin alpha-1B chain
T14 construct: Proteins enriched by c-ponatinib from U2OS cell lysate; endogenous in cells; host or cells: U2OS cell lysate
Summary of the method: as §1

[15] = target: T15, proteins of U2OS cell lysate (Homo sapiens, UniProt Q13428); conditions: TCOF1, Treacle protein
T15 construct: Proteins enriched by c-ponatinib from U2OS cell lysate; endogenous in cells; host or cells: U2OS cell lysate
Summary of the method: as §1

[16] = target: T16, proteins of U2OS cell lysate (Homo sapiens, UniProt Q86UP2); conditions: KTN1, Kinectin
T16 construct: Proteins enriched by c-ponatinib from U2OS cell lysate; endogenous in cells; host or cells: U2OS cell lysate
Summary of the method: as §1

[17] = target: T17, proteins of U2OS cell lysate (Homo sapiens, UniProt Q9UPT5); conditions: EXOC7, Exocyst complex component 7
T17 construct: Proteins enriched by c-ponatinib from U2OS cell lysate; endogenous in cells; host or cells: U2OS cell lysate
Summary of the method: as §1

[18] = target: T18, proteins of U2OS cell lysate (Homo sapiens, UniProt Q9Y4K4); conditions: MAP4K5, Mitogen-activated protein kinase kinase kinase kinase 5
T18 construct: Proteins enriched by c-ponatinib from U2OS cell lysate; endogenous in cells; host or cells: U2OS cell lysate
T18 sequence (Q9Y4K4 whole entry): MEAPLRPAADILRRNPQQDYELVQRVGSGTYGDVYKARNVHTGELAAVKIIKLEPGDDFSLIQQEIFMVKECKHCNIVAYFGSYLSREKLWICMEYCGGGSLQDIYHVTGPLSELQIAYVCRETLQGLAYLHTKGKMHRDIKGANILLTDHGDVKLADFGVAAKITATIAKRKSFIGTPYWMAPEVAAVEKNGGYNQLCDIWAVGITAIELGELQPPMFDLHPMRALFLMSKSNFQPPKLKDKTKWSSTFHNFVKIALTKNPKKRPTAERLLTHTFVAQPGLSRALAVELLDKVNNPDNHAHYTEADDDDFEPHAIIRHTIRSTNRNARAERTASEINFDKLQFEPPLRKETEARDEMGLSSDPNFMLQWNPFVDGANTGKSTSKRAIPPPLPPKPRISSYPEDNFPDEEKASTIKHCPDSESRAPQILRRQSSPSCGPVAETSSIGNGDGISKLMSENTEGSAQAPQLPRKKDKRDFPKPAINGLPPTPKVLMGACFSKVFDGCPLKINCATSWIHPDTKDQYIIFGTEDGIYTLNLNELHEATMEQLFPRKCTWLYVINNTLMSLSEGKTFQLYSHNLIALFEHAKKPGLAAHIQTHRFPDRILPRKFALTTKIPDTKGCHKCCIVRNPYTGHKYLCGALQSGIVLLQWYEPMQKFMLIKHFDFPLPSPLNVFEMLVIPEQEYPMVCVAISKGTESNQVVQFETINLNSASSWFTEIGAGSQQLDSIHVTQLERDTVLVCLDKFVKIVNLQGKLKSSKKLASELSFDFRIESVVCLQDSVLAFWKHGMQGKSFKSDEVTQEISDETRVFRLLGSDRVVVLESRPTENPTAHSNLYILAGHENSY
Summary of the method: as §1

[19] = target: T19, proteins of U2OS cell lysate (Homo sapiens, UniProt Q9Y512); conditions: SAMM50, Sorting and assembly machinery component 50 homolog
T19 construct: Proteins enriched by c-ponatinib from U2OS cell lysate; endogenous in cells; host or cells: U2OS cell lysate
T19 sequence (Q9Y512 whole entry): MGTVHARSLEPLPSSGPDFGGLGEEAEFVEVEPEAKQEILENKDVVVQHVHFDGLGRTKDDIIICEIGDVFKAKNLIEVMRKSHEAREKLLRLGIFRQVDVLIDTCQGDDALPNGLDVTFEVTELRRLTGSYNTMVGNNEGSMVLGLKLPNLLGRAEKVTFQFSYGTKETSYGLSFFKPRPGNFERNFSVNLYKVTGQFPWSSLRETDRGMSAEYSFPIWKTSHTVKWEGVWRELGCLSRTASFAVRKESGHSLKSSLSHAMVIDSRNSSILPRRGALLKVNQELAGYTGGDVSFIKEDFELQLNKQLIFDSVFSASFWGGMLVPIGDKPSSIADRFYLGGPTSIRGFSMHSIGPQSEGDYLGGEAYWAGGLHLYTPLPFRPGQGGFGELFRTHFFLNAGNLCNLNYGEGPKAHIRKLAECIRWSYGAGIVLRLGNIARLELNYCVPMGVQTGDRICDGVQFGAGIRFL
Summary of the method: as §1

T1 sequence (A1L0T0 whole entry): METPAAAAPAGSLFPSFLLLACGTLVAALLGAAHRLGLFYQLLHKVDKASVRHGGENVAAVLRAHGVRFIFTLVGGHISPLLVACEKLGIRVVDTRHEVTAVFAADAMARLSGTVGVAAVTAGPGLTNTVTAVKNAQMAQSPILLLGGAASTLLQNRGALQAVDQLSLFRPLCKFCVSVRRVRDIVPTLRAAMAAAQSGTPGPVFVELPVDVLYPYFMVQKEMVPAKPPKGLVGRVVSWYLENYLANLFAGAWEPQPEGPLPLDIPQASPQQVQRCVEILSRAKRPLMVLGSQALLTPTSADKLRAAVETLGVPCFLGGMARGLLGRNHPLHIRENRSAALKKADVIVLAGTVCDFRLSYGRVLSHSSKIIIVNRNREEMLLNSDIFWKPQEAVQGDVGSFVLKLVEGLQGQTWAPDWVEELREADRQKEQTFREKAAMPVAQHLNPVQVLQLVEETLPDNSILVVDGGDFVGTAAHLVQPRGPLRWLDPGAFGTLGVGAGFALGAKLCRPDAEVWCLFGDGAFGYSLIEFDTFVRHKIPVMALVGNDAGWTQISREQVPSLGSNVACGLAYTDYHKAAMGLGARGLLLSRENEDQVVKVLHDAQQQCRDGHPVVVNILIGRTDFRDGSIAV

What does the source list for `Cc1ccc(C(=O)Nc2ccc(CN3CCN(C)CC3)c(C(F)(F)F)c2)cc1C#Cc1cnc2cccnn12` [PON]?
Average LFQ PON_WT [1]: 23.3851; Average LFQ PON_WT [2]: 23.4188; Average LFQ PON_WT [3]: 19.4979; Average LFQ PON_WT [4]: 20.7048; Average LFQ PON_WT [5]: 26.0565; Average LFQ PON_WT [6]: 23.7419; Average LFQ PON_WT [7]: 19.8468; Average LFQ PON_WT [8]: 19.6049; Average LFQ PON_WT [9]: 20.9612; Average LFQ PON_WT [10]: 23.9511; Average LFQ PON_WT [11]: 23.3938; Average LFQ PON_WT [12]: 19.7729; Average LFQ PON_WT [13]: 24.9214; Average LFQ PON_WT [14]: 27.3228; Average LFQ PON_WT [15]: 20.5654; Average LFQ PON_WT [16]: 24.25; Average LFQ PON_WT [17]: 19.8682; Average LFQ PON_WT [18]: 19.9263; Average LFQ PON_WT [19]: 20.9007
